The term pIC50 denotes the negative decadic logarithm of the IC50, by convention in mol/L. As a reminder, the pEC50 is the EC50 on a negative log10 scale, so that one unit is a factor of ten.

pEC50, pIC50: −log10 of the molar value. Like-named read-outs stand apart in the source and are kept apart here.

The values below come from paper PMC7559125 (Pathogens, 2020).

Assay [1] concerns A/Osaka/8/2014 (H275Y).
In assay [2] the test system is A/Yokohama/94/2016 (H275Y).
Assay [3] has as its system All viruses tested (dual H275Y, single H275Y, wild-type).
For assay [4], the system named is A/Hiroshima/13/2016 (H275Y/G147R).
Assay [5] concerns A/Aichi/83/2016 (H275Y).
For assay [6], the system named is A/Ibaraki/54/2016 (H275Y/I223K).
The subject of assay [7] is A/Hiroshima/57/2014 (H275Y/I223R).
Assay [8] deals with A/Osaka/8/2014 (H275Y). This is another data set of the same source.
Assay [9] has as its system A/Hiroshima/13/2016 (H275Y/G147R). The source holds these as a separate data set.
In assay [10] the test system is All viruses tested (dual H275Y, single H275Y, wild-type). This is another data set of the same source.
Assay [11] has as its system A/Aichi/83/2016 (H275Y). This is another data set of the same source.
Assay [12] deals with A/Yokohama/94/2016 (H275Y). The source holds these as a separate data set.
The subject of assay [13] is A/Ibaraki/54/2016 (H275Y/I223K). This is another data set of the same source.
In assay [14] the test system is A/Hiroshima/57/2014 (H275Y/I223R). The source holds these as a separate data set.
The target of assay [15] is neuraminidase of A/Hiroshima/13/2016 (H275Y/G147R) (Influenza A virus, UniProt A0A0X9QTS2, G147R/H275Y).
In assay [16] the test system is neuraminidase of the dual H275Y mutant viruses.
The target of assay [17] is neuraminidase of A/Hiroshima/57/2014 (H275Y/I223R) (Influenza A virus, UniProt W8DXJ8, H275Y/I223R).
Assay [18] concerns the target neuraminidase of A/Yokohama/94/2016 (H275Y) (Influenza A virus, UniProt A0A0X9QTS2, H275Y).
Assay [19] addresses neuraminidase of A/Osaka/8/2014 (H275Y) (Influenza A virus, UniProt W8DXJ8, H275Y).
Assay [20] deals with neuraminidase of A/Ibaraki/54/2016 (H275Y/I223K) (Influenza A virus, UniProt A0A0X9QTS2, H275Y/I223K).
For assay [21], the target named is neuraminidase of A/Aichi/83/2016 (H275Y) (Influenza A virus, UniProt A0A0X9QTS2, H275Y).

As for `O=C1c2c(O)c(=O)ccn2N([C@@H]2c3ccccc3SCc3c2ccc(F)c3F)[C@@H]2COCCN12` [Baloxavir, Baloxavir acid], the “Fold-change in IC50 compared with the wild-type virus” value with A/Osaka/8/2014 (H275Y) [1] is on record as 5.10 (1.3) fold; in [2] it was 3.49 (0.6) fold; in [4], 10.59 (1.0) fold; with A/Aichi/83/2016 (H275Y) [5], 10.18 (0.9) fold; in assay [6] it was 7.24 (1.2) fold; in assay [7], 8.34 (2.1) fold. Further, the pIC50 in the assay on A/Osaka/8/2014 (H275Y) [1] is 8.29; in assay [2], 8.46; in assay [4], 7.98; in the assay on A/Aichi/83/2016 (H275Y) [5] it was 7.99; in assay [6] it was 8.14; in assay [7], 8.08. Besides, in assay [3], the “Susceptibility of all viruses tested (in words)” value is recorded as “susceptible”.

Regarding `NC(=O)c1nc(F)c[nH]c1=O` [Favipiravir, favipiravir], the pEC50 with A/Osaka/8/2014 (H275Y) [8] was 5.32; in assay [9], 4.82; with A/Aichi/83/2016 (H275Y) [11], 4.83; in assay [12], 4.67; in assay [13], 4.99; in assay [14], 5.10. For the same compound, the “Fold-change in EC50 compared with the wild-type virus” value was 4.76 (0.7) fold in the assay with A/Osaka/8/2014 (H275Y) [8]; 15.13 (1.7) fold in assay [9]; 14.83 (1.7) fold in the assay with A/Aichi/83/2016 (H275Y) [11]; 21.40 (2.1) fold in [12]; 10.20 (1.0) fold in assay [13]; 7.99 (1.2) fold in assay [14]. In addition, the “Susceptibility of all viruses tested (in words)” value in assay [10] is given as “susceptible”.

`[H]/N=C(\N)N[C@H]1C=C(C(=O)O)O[C@@H]([C@H](OC)[C@H](O)CO)[C@@H]1NC(C)=O` [Laninamivir]: in [15], the “Susceptibility of the H275Y/G147R mutant virus (in words)” value is “retained susceptibility”. Moreover, the “Susceptibility of the H275Y/I223R and H275Y/I223K mutant viruses (in words)” value in assay [16] was “reduced susceptibility”.

With `CCC(CC)[C@H](NC(C)=O)[C@@H]1[C@H](O)[C@@H](C(=O)O)C[C@H]1N=C(N)N.O.O.O` [Peramivir, peramivir trihydrate], the “Fold-change in IC50 compared with the wild-type virus” value was 944.20 (94,000) fold in [17]; 20.88 (300) fold in assay [18]; 28.25 (2,800) fold in assay [19]; 114.14 (1,400) fold in [15]; 501.62 (7,200) fold in [20]; 31.93 (400) fold in assay [21]. Further, the pIC50 is 6.02 in [17]; 7.68 in [18]; 7.55 in assay [19]; 6.94 in assay [15]; 6.30 in [20]; 7.50 in [21]. In assay [16], the “Susceptibility of the H275Y/I223R, H275Y/I223K and H275Y/G147R mutant viruses (in words)” value is “enhanced cross-resistance”.

As for `CC(=O)N[C@H]1[C@H]([C@H](O)[C@H](O)CO)OC(C(=O)O)=C[C@@H]1N=C(N)N` [Zanamivir, zanamivir hydrate], the “Susceptibility of the H275Y/I223R, H275Y/I223K and H275Y/G147R mutant viruses (in words)” value in assay [16] is “reduced susceptibility”.
